Assay results from US7129243B2, “Peptide compounds” (Astellas Pharma Inc., priority 2001, dated 2006).

What follows are compounds tested on production of nitric oxide in murine macrophage cell line RAW264.7 (assay: Assay for inhibitory activity on the production of nitric oxide). Settings: Mus musculus; test compound 10^−6 M; RAW264.7 cells activated with LPS (1 μg/ml) and INF γ (3 u/ml) for 18–24 hours; NO2^− by Griess reagent.
Type: cell-based
Procedure: The murine macrophage cell line RAW264.7 (American Type Culture Collection, No. TIB71) was used in this study. RAW264.7 cells were grown on […] plastic culture flasks at 37° C., 5% in Dulbecco's modified Eagle's medium (DMEM) supplemented with L-glutamine, penicillin, streptomycin and 10% heat-inactivated fetal bovine serum. They were removed from culture flasks by rubber cell scraper and were centrifuged and resuspended in DEM without phenol red. They were plated in 96-well microtiter plates (10^5 cells per well) and allowed to adhere over 2 hours. The test samples were added and the cells were preincubated for 1 hour. Thereafter the cells were activated with both of lipopolysaccharide (LPS) (1 μg/ml) and interferon γ (INF γ) (3 u/ml) for 18-24 hours. An equal volume of Griess reagent (1% sulfanilamide/0.1% N-naphthylethylenediamine dihydrochloride/2.5% H3PO4) was added and the cells were incubated at room temperature for 10 minutes. The absorbance was read at 570 nm using microplate reader and NO2^- was measured using NaNO2 as a standard.

SMILES | inhibition at 1 µM [%]
CC(C)OC1CCN(C(=O)CNC(=O)[C@H](Cc2ccccn2)NC(=O)/C=C/c2ccc(Cl)cc2)CC1 [Compound (g), (2E)-3-(4-Chlorophenyl)-N-[(1S)-2-{[2-(4-isopropoxy-1-piperidinyl)-2-oxoethyl]amino}-2-oxo-1-(2-pyridylmethyl)ethyl]acrylamide] | 100
O=C(N[C@@H](Cc1ccccn1)C(=O)NCC(=O)N1CCC(Oc2ccccn2)CC1)c1cc2cc(Cl)ccc2o1 [Compound (d), 5-Chloro-N-[(1S)-2-oxo-2-({2-oxo-2-[4-(2-pyridyloxy)-1-piperidinyl]ethyl}amino)-1-(2-pyridylmethyl)ethyl]-1-benzofuran-2-carboxamide] | 100
O=C(/C=C/c1ccc(Cl)cc1)N[C@@H](Cc1ccccn1)C(=O)NCC(=O)N1CCC(Oc2ccccc2)CC1 [Compound (e), (2E)-3-(4-Chlorophenyl)-N-[(1S)-2-oxo-2-{[2-oxo-2-(4-phenoxy-1-piperidinyl)ethyl]amino}-1-(2-pyridylmethyl)ethyl]-acrylamide] | 100
O=C(N[C@@H](Cc1ccccn1)C(=O)NCC(=O)N1CCC(Oc2nccs2)CC1)c1cc2cc(Cl)ccc2o1 [Compound (a), 5-Chloro-N-[(1S)-2-oxo-2-({2-oxo-2-[4-(1,3-thiazol-2-yloxy)-1-piperidinyl]ethyl}amino)-1-(2-pyridylmethyl)ethyl]-1-benzofuran-2-carboxamide] | 100
COc1cccc(OC2CCN(C(=O)CNC(=O)[C@H](Cc3ccccn3)NC(=O)c3cc4cc(Cl)ccc4o3)CC2)n1 [Compound (c), 5-Chloro-N-[(1S)-2-[(2-{4-[(6-methoxy-2-pyridyl)oxy]-1-piperidinyl}-2-oxoethyl)amino]-2-oxo-1-(2-pyridylmethyl)ethyl]-1-benzofuran-2-carboxamide] | 100
O=C(/C=C/c1ccc(Cl)cc1)N[C@@H](Cc1ccccn1)C(=O)NCC(=O)N1CCC(Oc2cnccn2)CC1 [Compound (b), (2E)-3-(4-Chlorophenyl)-N-[(1S)-2-oxo-2-({2-oxo-2-[4-(2-pyrazinyloxy)-1-piperidinyl]ethyl}amino)-1-(2-pyridylmethyl)ethyl]acrylamide] | 97.6
O=C(N[C@@H](Cc1ccccn1)C(=O)NCC(=O)N1CCC(OCC(F)(F)F)CC1)c1cc2cc(Cl)ccc2o1 [Compound (f), 5-Chloro-N-[(1S)-2-oxo-2-({2-oxo-2-[4-(2,2,2-trifluoroethoxy)-1-piperidinyl]ethyl}amino)-1-(2-pyridylmethyl)-ethyl]-1-benzofuran-2-carboxamide] | 100
